Measured values from patent publication US20050059641A1, “Compositions and methods for treating and preventing cancer using analogs of vitamin D” (Aphios Corporation, priority 2003, published 2005).
Entries after “also recorded” stand apart in the source; their conditions may differ.

Biological target: vitamin D receptor, VDR (Homo sapiens, UniProt P11473)
Test: cross-linking (affinity labeling) of the hormone-binding pocket of VDR
Conditions: FIG. 13
Text: The present invention is directed, in part, to novel analogs of 1,25(OH)2D3, for example, 1,25(OH)2D3-3-BE and 25(OH)2D3-3-BE. The inventors have developed a novel affinity alkylating analog of 1,25(OH)2D3 which cross links 1,25(OH)2D3 to the hormone-binding pocket of VDR via a nucleophilic displacement reaction between a Cys residue in the hormone-binding pocket (Cys288) and a reactive bromoacetate group at the 3-position of 1,25(OH)2D3 (Ray R, Ray S., and Holick M. F. 1″,25-dihydroxyvitamin D3-3-deoxy-3$-bromoacetate, an affinity labeling analog of 1″,25-dihydroxyvitamin D3. (1994) Bioorg. Chem. 22 276-283; Ray R, Swamy N, MacDonald P N, Ray S, Haussler M R, and Holick M F. (1996) Affinity labeling of 1″,25-dihydroxyvitamin D3 receptor. J. Biol Chem 271 2012-2017; Swamy N, Kounine M, and Ray R. (1997) Identification of the subdomain in the nuclear receptor for the hormonal form of vitamin D3, 1″,25-dihydroxyvitamin D3, vitamin D receptor, that is covalently modified by an affinity labeling reagent. Arch Biochem Biophys 348 91-95; Chen M L, Ray S, Swamy N, Holick M F, and Ray R. Mechanistic studies to evaluate the enhanced anti-proliferation of human keratinocytes by 1α,25-dihydroxyvitamin D3-3-bromoacetate, a covalent modifier of vitamin D receptor, compared to 1α,25-dihydroxyvitamin D3. (1999) Arch. Biochem. Biophys. […]

Chain of vitamin D receptor, VDR (P11473 whole entry): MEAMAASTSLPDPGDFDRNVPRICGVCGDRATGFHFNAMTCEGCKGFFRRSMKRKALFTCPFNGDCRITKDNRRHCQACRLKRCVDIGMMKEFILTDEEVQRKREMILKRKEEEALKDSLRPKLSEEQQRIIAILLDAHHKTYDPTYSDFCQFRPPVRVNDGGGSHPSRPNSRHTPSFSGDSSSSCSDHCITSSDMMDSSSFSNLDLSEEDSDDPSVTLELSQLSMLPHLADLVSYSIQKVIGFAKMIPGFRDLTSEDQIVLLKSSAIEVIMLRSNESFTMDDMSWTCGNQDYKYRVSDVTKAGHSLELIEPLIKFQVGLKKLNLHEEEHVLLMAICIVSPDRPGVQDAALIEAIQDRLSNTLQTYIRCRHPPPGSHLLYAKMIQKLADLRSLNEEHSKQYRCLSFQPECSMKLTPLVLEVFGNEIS

## C=C1CCC(OC(=O)CBr)CC1=CC=C1CCCC2(C)C1CCC2C(C)CCCC(C)(C)O (stereo not shown) [25-OH-D3-3-BE, 25-hydroxyvitamin D3-3-bromoacetate]
  cross-linking (labeling) of the hormone-binding pocket of VDR: specifically cross-links to the hormone binding pocket of VDR; also recorded: specifically labels the hormone-binding pocket of VDR
